Results taken from patent publication US8495760B2, “Atomic force microscope manipulation of living cells” (The Board of Trustees of the Leland Stanford Junior …, priority 2010, dated 2013).

How the values were obtained:
iPSC-CM = experiment: AFM measurement of beat force and beat rate of solitary iPSC-derived cardiomyocytes; format: cell-based, human
From the text: (§1) In step 1441, the nanoscale tip of the microscale cantilever of the AFM is controlled to apply gentle pressure to a location on the cardiomyocyte. […] In experimental embodiments described in more detail below, one or more cardiomyocytes were gently contacted by the cantilever tip with 100 pN of force, producing a typical cellular indentation of about 200 nm to about 500 nm. In various embodiments the contact force falls in a range from about 0.05 to about 1 nN. Thus, in some embodiments, a method includes operating a controller for the microscale cantilever to cause the nanoscale tip to contact the cardiomyocyte at a predetermined pressure.
(§2) In step 1443, the indentation is measured and the vertical deflection feedback is turned off to allow the cantilever to move with the contractions of the beating cardiomyocyte. […]
(§3) In step 1445, the time history of vertical deflection of the cantilever at the location on the cell is measured and recorded. FIG. 15 is a graph 1500 that illustrates an example measured force time series when the AFM cantilever interacts with the living cardiomyocyte, according to an embodiment. […]
(§4) In step 1447, beat characteristics of the cell are determined. For example, the beat force, duration (width) and rate (frequency) are determined based on the time history of vertical deflection in trace 1510. […]

hESC-CM = experiment: AFM measurement of beat force and beat rate of solitary hESC-derived cardiomyocytes; format: cell-based, human
From the text: as §1, §2, §3, §4

## NC[C@H](O)c1ccc(O)c(O)c1 [norepinephrine, 4-[(1R)-2-amino-1-hydroxyethyl]benzene-1,2-diol]
iPSC-CM; iPSC-CM after applying NE 100 μmol/L, 6% prior to treatment
  beats faster than a cutoff of 1.7 beats/s: 21%
iPSC-CM; solitary iPSC-CM, norepinephrine 100 μmol/L, immediately following treatment, before treatment 0.18±0.06 nN, p<0.001
  contraction force (beat force) after treatment: 0.48±0.23 nN
hESC-CM; hESC-CM after treatment with norepinephrine 100 μmol/L
  effect on the beat rate: minimal effect
hESC-CM; solitary hESC-CM, norepinephrine 100 μmol/L, immediately following treatment, before treatment 0.097±0.019 nN, p<0.001
  contraction force (beat force) after treatment: 0.31±0.03 nN
